Test results as given in patent US7781421B2, “Neuroactive 13, 24-cyclo-18, 21-dinorcholanes and structurally related pentacyclic steriods” (Washington University, priority 2003, dated 2010).

Columns and labels:
[1] = target: T1, rat α1β2γ2 GABAA Receptor (Rattus norvegicus, UniProt P18508+P62813+P63138, INS375LLRMFSFK); assay: Xenopus oocyte two-electrode voltage-clamp electrophysiology; format: cell-based; conditions: for Oocyte electrophysiology, ratio of currents in presence/absence of compound, 0.1 μM: 0.1 μM compound co-applied with 2 μM GABA; for Oocyte electrophysiology, ratio of currents in presence/absence of compound, 0.1 μM / Oocyte electrophysiology, ratio of currents in presence/absence of compound, 1 μM / Oocyte electrophysiology, ratio of currents in presence/absence of compound, 10 μM: −70 mV; for Oocyte electrophysiology, ratio of currents in presence/absence of compound, 1 μM: 1 μM compound co-applied with 2 μM GABA; for Oocyte electrophysiology, ratio of currents in presence/absence of compound, 10 μM: 10 μM compound co-applied with 2 μM GABA; for Gating (10 μM), ratio of compound only current/2 μM GABA current: direct current gated by 10 μM compound in the absence of GABA
T1 construct: from linearized pBluescript vectors containing receptor coding regions; expressed in transfected cells; host or cells: Xenopus laevis oocytes injected with in vitro transcribed capped mRNA
T1 sequence (P62813 28-455, stated change not applied): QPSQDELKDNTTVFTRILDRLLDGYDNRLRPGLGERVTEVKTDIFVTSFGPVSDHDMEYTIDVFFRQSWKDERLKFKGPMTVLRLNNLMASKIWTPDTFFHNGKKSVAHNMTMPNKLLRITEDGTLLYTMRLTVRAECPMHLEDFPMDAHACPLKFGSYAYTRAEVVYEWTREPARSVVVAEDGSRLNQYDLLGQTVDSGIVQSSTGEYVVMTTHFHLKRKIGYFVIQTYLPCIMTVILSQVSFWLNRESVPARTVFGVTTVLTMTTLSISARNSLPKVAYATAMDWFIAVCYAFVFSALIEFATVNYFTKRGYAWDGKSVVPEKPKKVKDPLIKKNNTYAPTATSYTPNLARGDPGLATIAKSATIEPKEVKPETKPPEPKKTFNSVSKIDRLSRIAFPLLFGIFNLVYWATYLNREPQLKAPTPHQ
T1 sequence (P63138 26-474, stated change not applied): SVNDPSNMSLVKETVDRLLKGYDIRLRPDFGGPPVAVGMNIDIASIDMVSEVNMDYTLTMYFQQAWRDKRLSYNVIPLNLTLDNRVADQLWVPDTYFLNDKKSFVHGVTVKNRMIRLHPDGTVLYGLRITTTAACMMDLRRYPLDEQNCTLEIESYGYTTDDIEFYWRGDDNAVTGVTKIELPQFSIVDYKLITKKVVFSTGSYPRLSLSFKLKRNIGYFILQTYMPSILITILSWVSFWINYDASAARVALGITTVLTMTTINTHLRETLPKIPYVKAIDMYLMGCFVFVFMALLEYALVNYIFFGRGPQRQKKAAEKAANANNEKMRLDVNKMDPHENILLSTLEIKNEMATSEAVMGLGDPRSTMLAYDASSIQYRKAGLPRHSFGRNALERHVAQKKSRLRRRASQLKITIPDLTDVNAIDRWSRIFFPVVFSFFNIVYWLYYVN
T1 sequence (P18508 with tags, fused parts or gaps INS375LLRMFSFK): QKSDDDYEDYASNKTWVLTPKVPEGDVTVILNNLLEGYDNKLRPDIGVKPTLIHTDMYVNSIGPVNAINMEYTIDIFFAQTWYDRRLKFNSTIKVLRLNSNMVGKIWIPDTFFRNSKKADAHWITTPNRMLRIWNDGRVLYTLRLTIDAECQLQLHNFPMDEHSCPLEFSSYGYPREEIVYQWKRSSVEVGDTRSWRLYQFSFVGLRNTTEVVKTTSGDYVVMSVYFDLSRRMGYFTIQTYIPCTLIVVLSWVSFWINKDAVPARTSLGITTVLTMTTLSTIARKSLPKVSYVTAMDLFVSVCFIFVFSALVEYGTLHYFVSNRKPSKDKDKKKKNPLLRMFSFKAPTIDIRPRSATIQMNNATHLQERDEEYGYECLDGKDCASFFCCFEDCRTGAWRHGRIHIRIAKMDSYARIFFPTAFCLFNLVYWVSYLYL
Protocol: Stage V-VI oocytes were harvested from sexually mature female Xenopus laevis (Xenopus One, Northland, Mich.) under 0.1% tricaine (3-aminobenzoic acid ethyl ester) anesthesia. Oocytes were defolliculated by shaking for 20 min at 37° C. in collagenase (2 mg/ml) dissolved in calcium-free solution containing (in mM): 96 NaCl, 2 KCl, 1 MgCl2, and 5 HEPES at pH 7.4. Capped mRNA, encoding rat GABAA receptor α1, β2 and γ2L subunits was transcribed in vitro using the mMESSAGE mMachine Kit (Ambion, Austin, Tex.) from linearized pBluescript vectors containing receptor coding regions. Subunit transcripts were injected in equal parts (20-40 ng total RNA) 8-24 hours following defolliculation. Oocytes were incubated up to 5 days at 18° C. in ND96 medium containing (in mM): 96 NaCl, 1 KCl, 1 MgCl2, 2 CaCl2 and 5 HEPES at pH 7.4, supplemented with pyruvate (5 mM), penicillin (100 U/ml), streptomycin (100 μg/ml) and gentamycin (50 μg/ml). The cDNAs for the rat GABAA-receptor subunits were originally provided by A. Tobin, University of California, Los Angels (α1), P. Malherbe, Hoffman-La Roche, Switzerland (β2), C. Fraser, National Institute on Alcohol Abuse and Alcoholism (γ2L).
Two-electrode voltage-clamp experiments were performed with a Warner OC725 amplifier 2-5 days following RNA injection. The extracellular recording solution was ND96 medium with no supplements. Intracellular recording pipettes were filled with 3 M KCl and had open tip resistances of ˜1 MΩ. Drugs were applied from a common tip via a gravity-driven multibarrel drug-delivery system. Steroids were simultaneously co-applied with GABA. Cells were clamped at −70 mV for all experiments, and peak current during 20 s drug applications was measured. Data acquisition and analysis were performed with pCLAMP software (Axon Instruments, California). Statistical differences were determined using a two-tailed Student's t-test.
The GABA concentration used for the control response was 2 μM. Each compound was evaluated on at least four different oocytes at the concentrations indicated, and the results reported are the ratio of the currents measured in the presence/absence of added compound. (G) represents direct current gated by 10 μM compound in the absence of GABA, and this current is reported as the ratio of compound only current/2 μM GABA current. Error limits are calculated as standard error of the means.

[2] = target: GABAA receptor ([35S]-TBPS binding site, rat brain cortical membranes); assay: Displacement of [35S]-TBPS binding, rat brain cortical membranes; conditions: 5 μM GABA, 2 nM [35S]-TBPS; ± standard error of the means
Protocol: Rat brain cortical membranes were prepared with minor modifications of the method previously reported. (Hawkinson, J. E., et al., Correlation of Neuroactive Steroid Modulation of [^35S]t-Butylbicyclophosophorothionate and [^3H]Flunitrazepam Binding and γ-Aminobutyric AcidA Receptor Function, Mol. Pharmacol., 1994, 46, 977-985). Briefly, frozen rat cerebral cortices (Pel-freez, Rogers, Ak.) were thawed and homogenized in 10 volumes of ice-cold 0.32 M sucrose using a glass/Teflon pestle. The homogenate was centrifuged at 1500×g for 10 min at 4° C. The resultant supernatant was centrifuged at 10,000×g for 30 min at 4° C. The pellet (P2) from this centrifugation was resuspended in 200 mM NaCl, 50 mM potassium phosphate buffer, pH 7.4, and centrifuged at 10,000×g for 20 min at 4° C. This washing procedure was done a total of three times, and then pellets were resuspended in buffer (˜4 mL/brain) using a glass/Teflon pestle. The membrane suspension was aliquoted, frozen in liquid nitrogen, and stored at −80° C. prior to use.
[^35S]-TBPS Binding assays were done according to the procedure described previously (Hawkinson, J. E., et al., Correlation of Neuroactive Steroid Modulation of [^35S]t-Butylbicyclophosophorothionate and [^3H]Flunitrazepam Binding and γ-Aminobutyric AcidA Receptor Function, Mol. Pharmacol., 1994, 46, 977-985) with modifications. Briefly, aliquots of membrane solution (0.5 mg/mL final protein concentration in assay) were incubated with 5 μM GABA, 2 nM [^35S]-TBPS (45-120 Ci/mmol), and 5 μL aliquots of steroid in DMSO solution (final assay concentrations ranged from 1 nM to 10 μM), and brought to a final volume of 1 mL with 200 mM NaCl, 50 mM potassium phosphate buffer, pH 7.4. […] Assay tubes were incubated for 2 hr at room temperature. A Brandel (Gaithersburg, Md.) cell harvester was used for filtration of the assay tubes through Whatman/GF/C glass filter paper. Filter paper was rinsed with 4 mL of ice-cold buffer three times. Radioactivity bound to the filters was read by liquid scintillation counter and data was fit using Sigma Plot version 3.0 to the Hill equation i. f=Rmax/{1+([conc]/IC50)^n}
Where Rmax is the maximal effect, [conc] is steroid concentration, IC50 is the half-maximal inhibitor concentration and n is the Hill coefficient. Each data point was determined in triplicate and 2-3 full concentration-response curves were generated for each steroid.

Xenopus laevis tadpoles = assay: Tadpole loss of righting (LRR) and swimming (LSR) reflexes; format: in vivo; conditions: 3 h equilibration at room temperature; for EC50: Xenopus laevis, 3 h, read-out: LSR EC50 (loss of swimming response)
Protocol: Tadpole LRR was measured as described previously. (See, Wittmer, L. L., et al., Enantioselectivity of steroid-induced γ-aminobutyric acidA receptor modulation and anesthesia, Mol. Phar., 1996, 50:1581-1586). Briefly, groups of 10 early prelimb-bud stage Xenopus laevis tadpoles (Nasco, Fort Atkinson, Wis.) were placed in 100 mL of oxygenated Ringer's stock solution containing various concentrations of compound. Compounds were added from a 10 mM DMSO stock (final concentration of DMSO in test solutions ≦0.1%). After equilibrating at room temperature for 3 h, tadpoles were evaluated using the LRR and LSR behavioral endpoints. LRR was defined as failure of the tadpole to right itself within 5 sec after being flipped by a smooth glass rod. LSR was defined as failure of the tadpole to swim when touched by a smooth glass rod. In general, the tadpoles regained their righting and swimming reflexes when placed in fresh oxygenated Ringer's solution. Control beakers containing up to 0.6% DMSO produced no LRR or LSR in tadpoles.
Tadpole LRR and LSR concentration-response curves were fit using Sigma Plot version 3.0 to the Hill equation f=Rmax/{1+([conc]/EC50)^n}
where Rmax is the maximum effect, [conc] is the steroid concentration, EC50 is the half-maximal effective concentration, and n is the Hill coefficient.

Row | SMILES | melting point | Oocyte electrophysiology, ratio of currents in presence/absence of compound, 0.1 μM [1] | Oocyte electrophysiology, ratio of currents in presence/absence of compound, 1 μM [1] | Oocyte electrophysiology, ratio of currents in presence/absence of compound, 10 μM [1] | Gating (10 μM), ratio of compound only current/2 μM GABA current [1] | IC50 [2] [nM] | LRR ED50 (loss of righting response) (Xenopus laevis tadpoles) | LSR EC50 (loss of swimming response) (Xenopus laevis tadpoles) | EC50 (Xenopus laevis tadpoles) [nM]
1 | CC(=O)C1CCCC23CCC4C(CCC5CC(O)CCC54C)C2CCC13 [Compound 80, (3α,5α,20R)-1-[3-Hydroxy-13,24-cyclo-18,21-dinorcholan-20-yl]ethanone] | 228 to 229 °C | 0.85 ± 0.02 | 0.77 ± 0.03 | 0.93 ± 0.07 | 0.01 ± 0.01 | 2060 | None @ 10 | None @ 10 | 
2 | CC12CCC(O)CC1CCC1C2CCC23CCC(=CC#N)C2CCC13 (stereo not drawn) [Compound 97, (3α,5α,20Z)-3-Hydroxy-18,21-cyclopregnan-20-ylideneacetonitrile] | 226 to 228 °C | 0.88 ± 0.07 | 0.87 ± 0.15 | 1.10 ± 0.08 | −0.02 ± 0.06 | 17200 | >10000 nM | None @ 10 | 
3 | C[C@]12CC[C@@H](O)C[C@@H]1CCC1C3CC[C@@H]4[C@]5(CCC[C@]34CCC12)CO5 (stereo partly drawn) [Compound 74, (3α,5α,20R)-20,21-Epoxy-13,24-cyclo-18-norcholan-3-ol] | 206 to 211 °C (dec.) | 1.61 ± 0.18 | 5.46 ± 1.21 | 4.53 ± 0.75 | −0.01 ± 0.01 | 64 ± 9 | >10000 nM | None @ 10 | 
4 | CC12CCC(O)CC1CCC1C2CCC23CC4OC4C(=O)C2CCC13 [Compound 19a, (3α,5α,22S,23S)-22,23-Epoxy-3-hydroxy-13,24-cyclo-18,21-dinorcholan-20-one] | 238 to 240 °C | 1.47 ± 0.17 | 1.92 ± 0.23 | 8.90 ± 2.10 | 0.23 ± 0.24 | 370 ± 42 | 1750 ± 460 nM |  | 10000
5 | C[C@]12CC[C@@H](O)C[C@@H]1CCC1C3CC[C@@H]4C(C#N)=CCC[C@]34CCC12 (stereo partly drawn) [Compound 57, (3α,5α)-3-Hydroxy-13,24-cyclo-18,21-dinorchol-20(22)-ene-20-carbonitrile] | 193 to 195 °C | 0.91 ± 0.03 | 0.96 ± 0.04 | 3.18 ± 0.24 | 0.01 ± 0.02 | 433 ± 30 | 420 nM | None @ 10 | 
6 | CC12CCC(O)CC1CCC1C2CCC23CCC(=O)CC2CCC13 (stereo not drawn) [Compound 3b, (3α,5β)-3-Hydroxy-13,24-cyclo-18,21-dinorcholan-22-one] | 175 to 177 °C | 0.97 ± 0.01 | 1.11 ± 0.14 | 2.65 ± 0.33 | −0.10 ± 0.06 | 3230 | 2470 ± 530 nM |  | 9430 ± 60
7 | C[C@]12CC[C@@H](O)C[C@@H]1CCC1C3CC[C@@H]4[C@H]5O[C@H]5CC[C@]34CCC12 (stereo partly drawn) [Compound 71, (3α,5α,20R,22S)-20,22-Epoxy-13,24-cyclo-18,21-dinorcholan-3-ol] | 206 to 208 °C | 0.90 ± 0.05 | 1.05 ± 0.09 | 1.94 ± 0.23 | 0.00 ± 0.00 | 596 ± 71 | None @ 10 | None @ 10 | 
